According to patent publication US20070078096A1, “Buffered drug formulations for transdermal electrotransport delivery” (priority 1997, published 2007):
≈ marks a conversion by molar mass, not a printed value. Where two headings read alike, the source gives them in different places. Residues, ends and D or L forms follow the SMILES beside them.

Legend:
[1] = Conductivity of dipeptides at their pI; format: physicochemical
Description: (§1) Table 1 lists conductivities and solubilities of selected dipeptides useful in the present invention, at their pI.

[2] = Solubility of dipeptides at their pI; format: physicochemical
Description: as §1

[3] = pKa, pI and charge distribution of buffers; conditions: for % salt: fraction of dipeptide carrying a net charge in aqueous solution at pH equal to pI
Description: At the pI, three species coexist.
In an electric field these negative species move in the opposite direction of their positive associated counterions.
Choice of the dipeptide buffer will be on a case-by-case basis depending on the drug compound and the desired level of pH control and conductivity of the formulation.

[4] = In vivo iontophoresis, pH control of anodic and cathodic buffer gels (Example 2); design: species or system hairless guinea pigs; Ionic strength (approx.): unit not given here; conditions: for Anodic pH after 5 h electrotransport / Cathodic pH after 5 h electrotransport: 0.1 mA/cm^2; for pH control of electrotransport formulations: electrotransport experiments in animals; for pH control of electrotransport formulations / pH control of anodic and cathodic electrotransport formulations: at their pI; for pH control of electrotransport formulations / pH control of an anodic electrotransport formulation: for several hours; for pH control of a cathodic electrotransport formulation: for at least 5 hours; for pH control of a cathodic electrotransport formulation / pH control of an anodic electrotransport formulation: dipeptides at their pI; for pH control of anodic and cathodic electrotransport formulations: for up to 24 hours
Procedure: In vivo iontophoresis experiments were performed using custom built electrotransport systems. […] This formulation was separated from the anode electrode by a Sybron ion exchange membrane. […] The cathode-compartment comprised a skin-contacting gel containing the aqueous solution of the buffering agent at the indicated concentration and 3% HEC. This formulation was separated from the cathode electrode by a Nafion ion exchange membrane. […] The electrodes were connected to a DC power source which supplied a constant level of electric current of 0.1 mA/cm^2. Experiments were performed in vivo in hairless guinea pigs. Three animals were used for each condition studied. The electrotransport systems were applied to and removed from the flank of the animals. The two reservoirs were generally spaced about 5 cm apart. The application site was wiped with water prior to system application. pH of the gels was measured prior to application and after removal of the systems using a HORIBA compact pH […]).

[5] = pH stability of formulations with TMAB or SMS during electrotransport (Example 4); format: in vivo, hairless guinea pigs; conditions: for pH control with TMAB or SMS: all experimental conditions tested (Table 7)
Description: The effect of the zwitterionic buffer Gly-His and His-Glu on pH stability of formulations containing small molecular weight drug-like compounds during electrotransport to hairless guinea pigs was studied. Trimethylammonium bromide (TMAB) was used as the cationic model drug and sodium methanesulfate (SMS) was used as the model anionic drug.
The electrodes were connected to a DC power source which supplied a constant level of electric current of 0.100 mA/cm^2. The anodic electrode assembly comprised a skin-contacting gel containing the aqueous solution of His-Glu 66 mM or Gly-His 45 mM and TMAB at 50 mM and 3% HEC. This formulation was separated from the silver anode by a Sybron ion exchange membrane. A gel containing 0.15 M sodium chloride (which acted as a chloride source) was placed between the silver anode and the ion exchange membrane. The cathodic electrode assembly comprised a skin-contacting gel containing the aqueous solution of His-Glu 66 mM or Gly-His 45 mM and SMS 50 mM and 3% HEC. The cathodic gel reservoir was separated from the silver chloride cathode by a Nafion ion exchange membrane. A gel containing 0.1 5M sodium chloride was placed between the cathode and the ion exchange membrane. The ionic strength of the skin-contacting gels was 60 mM.
Experiments were performed in vivo in hairless guinea pigs. Two animals were used for each condition studied. The electrotransport systems were applied to and removed from the backs of the animals. The two reservoirs were generally spaced about 5 cm apart. The application site was wiped with 70% isopropyl alcohol wipes prior to system application. Donor reservoir gel pH was measured prior to application and after removal of the systems using a HORIBA compact pH meter (Cardy).

[6] = Donor reservoir gel pH during electrotransport of DECAD (Example 3); format: in vivo, hairless guinea pigs
Procedure: The effect of the zwitterionic buffer Gly-His at pH 7.5 (pI) on the transdermal delivery of a synthetic radiolabeled decapeptide (DECAD) in the hairless guinea pig was evaluated. […] At pH 7.5 the net charge of DECAD is about +1.6.
The electrodes were connected to a DC power source which supplied a constant level of electric current of 0.100 mA/cm2. The anodic reservoir comprised a skin-contacting gel containing the aqueous solution of the buffering agent and DECAD at the indicated concentrations and 3% hydroxyethyl cellulose (HEC) as well as 10% cholestyramine, a high molecular weight resin in chloride salt form which contributes chloride ions into the donor solution without introducing mobile cations which compete with the DECAD for delivery into the animal. The chloride ions from the cholestyramine resin are provided to react with any silver ions which are generated by electrochemical oxidation of the silver foil anode, thereby removing silver cations (ie, as potentially competing with the DECAD cations) from the donor solution. The cathodic reservoir contained a 0.15 M aqueous solution of sodium chloride in an HEC gel.
Experiments were performed in vivo in hairless guinea pigs. Three animals were used for each condition studied. The electrotransport systems were applied to and removed from the flank of the animals. The two reservoirs were generally spaced about 5 cm apart. The application site was wiped with water prior to system application. […] Donor reservoir gel pH was measured prior to application and after removal of the systems using a HORIBA compact pH meter (Cardy).

[7] = Gly-His 10 mM, DECAD 5 mM, wearing time 5 h
[8] = Gly-His 30 mM, DECAD 5 mM, wearing time 5 h
[9] = Gly-His 100 mM, DECAD 0.5 mM, wearing time 5 h
[10] = Gly-His 100 mM, DECAD 5 mM, wearing time 5 h
[11] = Gly-His 100 mM, DECAD 5 mM, wearing time 24 h
[12] = Gly-His 250 mM, DECAD 5 mM, wearing time 5 h

For `N[C@@H](Cc1cnc[nH]1)C(=O)N[C@@H](CCC(=O)O)C(=O)O` [His-Glu] (H-His-Glu-OH), the “Conductivity at 10^−2 Molar” value [1] was 40 μS/cm, the Solubility [2] was 400 mM (≈ 114 mg/mL) and the pI [3] was 5.2. The pI ([3]; Table 1) was 5.20, the pI ([3]; Table 2) was 5.20 and the “species presenting a net charge (salt form) at the pI” value ([3]; at pI) was “about 15%”. The “% salt” value [3] was 15%, the “pH after 24 h electrotransport” value ([4]; Anode, listed as His-Glu 100 mM) was 5.5 and the “pH after 24 h electrotransport” value ([4]; Anode, listed as His-Glu 250 mM) was 5.4. For the same compound, the “pH after 24 h electrotransport” value ([4]; Cathode, listed as His-Glu 100 mM) was 5.4, the “pH after 24 h electrotransport” value ([4]; Cathode, listed as His-Glu 250 mM) was 5.2 and the “Ionic strength (approx.)” value ([4]; Table 3, anodic buffer gel, listed as His-Glu 100 mM) was roughly 0.015. The “Ionic strength (approx.)” value ([4]; Table 3, anodic buffer gel, listed as His-Glu 250 mM) was roughly 0.037, the “Ionic strength (approx.)” value ([4]; Table 4, cathodic buffer gel, listed as His-Glu 100 mM) was roughly 0.015 and the “Ionic strength (approx.)” value ([4]; Table 4, cathodic buffer gel, listed as His-Glu 250 mM) was roughly 0.037. For the same compound, the “Initial pH” value ([4]; Table 5, Anode, listed as His-Glu 100 mM) was 5.1, the “Initial pH” value ([4]; Table 5, Anode, listed as His-Glu 250 mM) was 5.2 and the “Initial pH” value ([4]; Table 5, Cathode) was 5.3. For the same compound, the “Anodic pH after 5 h electrotransport” value ([4]; anodic gel) was 5.2, the “Initial pH” value ([4]; anodic gel, prior to application, listed as His-Glu 100 mM) was 5.1 and the “Initial pH” value ([4]; anodic gel, prior to application, listed as His-Glu 250 mM) was 5.2. The “Cathodic pH after 5 h electrotransport” value ([4]; cathodic gel) was 5.0, the “Initial pH” value ([4]; cathodic gel, prior to application) was 5.3 and the “pH control of electrotransport formulations” value [4] was “capable of assuring pH control”. For the same compound, the “pH control of a cathodic electrotransport formulation” value [4] was “capable of assuring pH control”, the “pH control of an anodic electrotransport formulation” value [4] was “capable of assuring pH control” and the “pH control of anodic and cathodic electrotransport formulations” value [4] was “capable of assuring pH control”. For the same compound, the “Final pH” value ([5]; Anode, drug TMAB 50 mM) was 5.3, the “Initial pH” value ([5]; Anode, drug TMAB 50 mM) was 5.1 and the “Final pH” value ([5]; Cathode, drug SMS 50 mM) was 6.0. The “Initial pH” value ([5]; Cathode, drug SMS 50 mM) was 5.2 and the “pH control with TMAB or SMS” value [5] was “good pH control”.
For `NCC(=O)N[C@@H](Cc1cnc[nH]1)C(=O)O` [Gly-His] (H-Gly-His-OH), the “Conductivity at 10^−2 Molar” value [1] was 52 μS/cm, the Solubility [2] was 1000 mM (≈ 212 mg/mL) and the pI [3] was 7.55. The “pka A” value [3] was 2.42, the pI ([3]; Table 1) was 7.55 and the pI ([3]; Table 2) was 7.55. For the same compound, the “species presenting a net charge (salt form) at the pI” value ([3]; at pI) was 30%, the “neutral species at the pI” value ([3]; at pI, net charge of zero) was 70% and the “% salt” value [3] was 22%. For the same compound, the “net charge at pH 7.5” value ([3]; pH 7.5) was “essentially zero”, the “pH after 24 h electrotransport” value ([4]; Anode) was 7.2 and the “pH after 24 h electrotransport” value ([4]; Cathode, listed as Gly-His 100 mM) was 7.3. For the same compound, the “pH after 24 h electrotransport” value ([4]; Cathode, listed as Gly-His 250 mM) was 7.0, the “Ionic strength (approx.)” value ([4]; Table 3, anodic buffer gel, listed as Gly-His 30 mM) was roughly 0.007 and the “Ionic strength (approx.)” value ([4]; Table 3, anodic buffer gel, listed as Gly-His 100 mM) was roughly 0.02. For the same compound, the “Ionic strength (approx.)” value ([4]; Table 3, anodic buffer gel, listed as Gly-His 250 mM) was roughly 0.06, the “Ionic strength (approx.)” value ([4]; Table 4, cathodic buffer gel, listed as Gly-His 100 mM) was roughly 0.02 and the “Ionic strength (approx.)” value ([4]; Table 4, cathodic buffer gel, listed as Gly-His 250 mM) was roughly 0.06. The “Initial pH” value ([4]; Table 5, Anode, listed as Gly-His 100 mM) was 7.3, the “Initial pH” value ([4]; Table 5, Anode, listed as Gly-His 250 mM) was 7.2 and the “Initial pH” value ([4]; Table 5, Cathode, listed as Gly-His 100 mM) was 7.6. For the same compound, the “Initial pH” value ([4]; Table 5, Cathode, listed as Gly-His 250 mM) was 6.9, the “Anodic pH after 5 h electrotransport” value ([4]; anodic gel, listed as Gly-His 30 mM) was 7.0 and the “Anodic pH after 5 h electrotransport” value ([4]; anodic gel, listed as Gly-His 100 mM) was 7.3. The “Anodic pH after 5 h electrotransport” value ([4]; anodic gel, listed as Gly-His 250 mM) was 7.3, the “Initial pH” value ([4]; anodic gel, prior to application, listed as Gly-His 30 mM) was 7.1 and the “Initial pH” value ([4]; anodic gel, prior to application, listed as Gly-His 100 mM) was 7.4. The “Initial pH” value ([4]; anodic gel, prior to application, listed as Gly-His 250 mM) was 7.4, the “Cathodic pH after 5 h electrotransport” value ([4]; cathodic gel, listed as Gly-His 100 mM) was 7.3 and the “Cathodic pH after 5 h electrotransport” value ([4]; cathodic gel, listed as Gly-His 250 mM) was 7.4. The “Initial pH” value ([4]; cathodic gel, prior to application, listed as Gly-His 100 mM) was 7.6, the “Initial pH” value ([4]; cathodic gel, prior to application, listed as Gly-His 250 mM) was 7.5 and the “pH control of electrotransport formulations” value [4] was “capable of assuring pH control”. The “pH control of a cathodic electrotransport formulation” value [4] was “capable of assuring pH control”, the “pH control of an anodic electrotransport formulation” value [4] was “capable of assuring pH control” and the “pH control of anodic and cathodic electrotransport formulations” value [4] was “capable of assuring pH control”. For the same compound, the “Final pH” value [6, 7] was 7.0, the “Initial pH” value [6, 7] was 6.9 and the “Final pH” value [6, 8] was 7.0. For the same compound, the “Initial pH” value [6, 8] was 7.1, the “Final pH” value [6, 9] was 7.2 and the “Initial pH” value [6, 9] was 7.3. For the same compound, the “Final pH” value [6, 10] was 7.3, the “Initial pH” value [6, 10] was 7.4 and the “Final pH” value [6, 11] was 7.3. For the same compound, the “Initial pH” value [6, 11] was 7.4, the “Final pH” value [6, 12] was 7.3 and the “Initial pH” value [6, 12] was 7.4. The “pH control with DECAD” value ([6]; all experimental conditions tested (Table 6)) was “capable of assuring pH control”, the “Final pH” value ([5]; Anode, drug TMAB 50 mM) was 6.9 and the “Initial pH” value ([5]; Anode, drug TMAB 50 mM) was 7.4. For the same compound, the “Final pH” value ([5]; Cathode, drug SMS 50 mM) was 7.9, the “Initial pH” value ([5]; Cathode, drug SMS 50 mM) was 7.5 and the “pH control with TMAB or SMS” value [5] was “good pH control”.
